In patent US20110009403A1, “2-MORPHOLINYLPURINES AS INHIBITORS OF PI3K” (S*BIO Pte Ltd., priority 2007, published 2011):
pIC50: −log10 of the molar value.

How the values were obtained:
[1] = target: mTOR (Homo sapiens, UniProt P42345); experiment: mTOR assay (phosphorylation of 4eBP1, [γ33P]-ATP filter plate); assay type: biochemical; conditions: 10 μM ATP, 1 hour at room temperature
[2] = target: T1, PI3K p110α/p85 (Homo sapiens, UniProt P42336); experiment: PI3K assay ([γ33P]ATP, PtdIns/PtdSer coated plates); assay type: biochemical; conditions: 2 μM ATP, 1 hour at RT; read-out: IC50 (PI3Kα)
T1 construct: made in house
T1 sequence (P42336 whole entry): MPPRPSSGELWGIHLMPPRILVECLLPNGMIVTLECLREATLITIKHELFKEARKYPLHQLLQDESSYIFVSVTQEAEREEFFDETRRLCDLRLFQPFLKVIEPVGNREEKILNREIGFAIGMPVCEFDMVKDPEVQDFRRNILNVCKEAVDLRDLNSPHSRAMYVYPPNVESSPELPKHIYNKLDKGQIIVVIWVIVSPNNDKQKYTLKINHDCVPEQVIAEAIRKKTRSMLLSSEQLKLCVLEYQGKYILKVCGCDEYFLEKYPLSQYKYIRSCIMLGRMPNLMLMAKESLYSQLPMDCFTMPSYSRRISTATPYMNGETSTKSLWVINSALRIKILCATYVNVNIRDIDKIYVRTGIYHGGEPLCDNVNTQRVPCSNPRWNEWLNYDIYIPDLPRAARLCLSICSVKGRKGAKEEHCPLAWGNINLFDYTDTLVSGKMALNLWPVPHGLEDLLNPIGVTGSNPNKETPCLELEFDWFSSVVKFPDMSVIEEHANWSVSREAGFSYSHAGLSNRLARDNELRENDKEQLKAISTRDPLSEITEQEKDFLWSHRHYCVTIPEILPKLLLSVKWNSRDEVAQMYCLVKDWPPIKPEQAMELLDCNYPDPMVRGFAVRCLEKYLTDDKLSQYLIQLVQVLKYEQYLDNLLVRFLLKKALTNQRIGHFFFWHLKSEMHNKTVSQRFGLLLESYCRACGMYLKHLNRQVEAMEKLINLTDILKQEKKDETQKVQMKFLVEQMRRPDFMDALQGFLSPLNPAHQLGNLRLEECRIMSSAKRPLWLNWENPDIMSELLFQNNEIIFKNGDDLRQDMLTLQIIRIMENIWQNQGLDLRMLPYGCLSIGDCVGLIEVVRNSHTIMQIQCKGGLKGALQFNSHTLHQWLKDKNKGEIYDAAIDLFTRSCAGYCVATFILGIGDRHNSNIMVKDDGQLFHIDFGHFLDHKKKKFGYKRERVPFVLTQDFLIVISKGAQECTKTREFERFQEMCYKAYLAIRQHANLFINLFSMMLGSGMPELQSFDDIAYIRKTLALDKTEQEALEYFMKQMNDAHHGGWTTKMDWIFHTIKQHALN
T1 sequence (P27986 whole entry partner): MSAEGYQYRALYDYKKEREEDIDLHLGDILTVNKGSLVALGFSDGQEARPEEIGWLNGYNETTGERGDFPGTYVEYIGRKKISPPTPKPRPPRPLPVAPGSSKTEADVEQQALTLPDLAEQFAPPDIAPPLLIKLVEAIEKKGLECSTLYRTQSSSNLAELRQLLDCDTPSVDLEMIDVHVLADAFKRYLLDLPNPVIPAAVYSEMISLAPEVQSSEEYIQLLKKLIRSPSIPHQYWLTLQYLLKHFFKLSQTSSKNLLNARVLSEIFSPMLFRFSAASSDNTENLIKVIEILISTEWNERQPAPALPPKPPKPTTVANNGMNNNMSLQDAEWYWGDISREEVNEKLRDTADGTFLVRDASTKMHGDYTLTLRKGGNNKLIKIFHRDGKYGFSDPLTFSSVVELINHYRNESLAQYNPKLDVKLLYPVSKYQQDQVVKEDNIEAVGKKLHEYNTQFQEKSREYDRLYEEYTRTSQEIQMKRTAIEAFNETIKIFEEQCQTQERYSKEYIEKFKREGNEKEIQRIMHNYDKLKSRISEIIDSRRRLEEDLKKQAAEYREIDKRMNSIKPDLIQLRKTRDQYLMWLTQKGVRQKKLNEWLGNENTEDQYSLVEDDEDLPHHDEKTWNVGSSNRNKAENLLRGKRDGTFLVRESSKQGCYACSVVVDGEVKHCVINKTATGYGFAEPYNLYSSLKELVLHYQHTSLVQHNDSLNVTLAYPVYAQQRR

[3] = test system: PC3; experiment: Cell-based proliferation assay, PC3; conditions: Homo sapiens, PC-3; PC3 cells, 96 h treatment
Method: (§1) Human cancer cell lines PC3 and DU145 (human prostate cancer cell lines), were obtained from ATCC. They were cultured in the media according to the ATCC work instructions. PC3 and DU145 cells were seeded at 1,000 cells per well in 96-well plates, respectively. The plates were incubated at 37° C., 5% CO2, for 24 h. Cells were treated with compounds at various concentrations for 96 h. Cell proliferation was then quantified using Celltiter96 Aqueous One Solution Cell Proliferation Assay from Promega (Madison Wis.). Dose response curves were plotted to determine IC50 values for the compounds using XL-fit (ID Business Solution, Emeryville, Calif.).

[4] = test system: DU145; experiment: Cell-based proliferation assay, DU145; conditions: Homo sapiens, DU-145; DU145 cells, 96 h treatment
Method: as §1

[5] = test system: human breast cancer cell lines; conditions: six of eight cancer lines inhibited; cited from earlier work

Chain of mTOR (P42345 1382-2549 limits assumed): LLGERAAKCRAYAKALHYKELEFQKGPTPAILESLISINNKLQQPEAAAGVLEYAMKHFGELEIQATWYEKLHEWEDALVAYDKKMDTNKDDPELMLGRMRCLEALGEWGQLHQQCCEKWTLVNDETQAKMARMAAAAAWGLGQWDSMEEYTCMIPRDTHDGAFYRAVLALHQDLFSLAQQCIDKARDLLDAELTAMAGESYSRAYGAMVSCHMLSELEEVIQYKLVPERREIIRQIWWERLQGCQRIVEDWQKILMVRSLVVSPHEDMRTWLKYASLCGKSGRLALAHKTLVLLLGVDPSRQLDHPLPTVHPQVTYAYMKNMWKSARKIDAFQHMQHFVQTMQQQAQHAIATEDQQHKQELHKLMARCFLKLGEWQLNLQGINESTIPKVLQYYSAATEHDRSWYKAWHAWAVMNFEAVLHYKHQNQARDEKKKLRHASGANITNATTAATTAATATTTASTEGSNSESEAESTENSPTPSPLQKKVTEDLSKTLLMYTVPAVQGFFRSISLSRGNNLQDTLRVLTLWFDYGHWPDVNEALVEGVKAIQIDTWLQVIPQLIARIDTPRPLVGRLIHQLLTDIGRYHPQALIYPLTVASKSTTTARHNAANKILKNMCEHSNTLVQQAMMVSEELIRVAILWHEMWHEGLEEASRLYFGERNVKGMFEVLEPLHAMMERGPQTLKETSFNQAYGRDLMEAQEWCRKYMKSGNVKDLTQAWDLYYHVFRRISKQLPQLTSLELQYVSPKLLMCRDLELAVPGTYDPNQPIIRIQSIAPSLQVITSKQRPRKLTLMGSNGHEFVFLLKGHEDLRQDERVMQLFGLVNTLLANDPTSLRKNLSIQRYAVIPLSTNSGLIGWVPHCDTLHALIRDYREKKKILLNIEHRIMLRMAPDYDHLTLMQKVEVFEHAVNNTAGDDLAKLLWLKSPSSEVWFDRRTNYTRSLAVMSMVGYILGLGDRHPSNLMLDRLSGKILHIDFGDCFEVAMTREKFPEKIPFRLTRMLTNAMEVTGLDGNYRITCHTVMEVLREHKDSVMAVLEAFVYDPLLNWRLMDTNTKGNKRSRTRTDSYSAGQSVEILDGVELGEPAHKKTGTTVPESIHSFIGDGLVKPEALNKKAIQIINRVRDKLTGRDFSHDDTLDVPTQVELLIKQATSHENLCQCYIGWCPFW

CC(C)C(C)n1cnc2c(-c3cccc4[nH]ccc34)nc(N3CCOCC3)nc21 (centres unmarked) [Compound 101]
pIC50 [1]: > 6.00 | pIC50 [2]: > 6.00 | pIC50 [3]: ≥ 6.00

Oc1cccc(-c2nc(N3CCOCC3)nc3c2ncn3C2CCCC2)c1 [Compound 54]
pIC50 [1]: > 6.00 | pIC50 [2]: > 6.00 | pIC50 [3]: ≥ 6.00 | pIC50 [4]: ≥ 6.00

c1cc(-c2nc(N3CCOCC3)nc3c2ncn3CC2CC2)c2cc[nH]c2c1 [Compound 51]
pIC50 [1]: > 6.00 | pIC50 [2]: > 6.00 | pIC50 [4]: 5.30 to 6.00

Cc1cccc(-n2cnc3c(-c4cccc(O)c4)nc(N4CCOCC4)nc32)c1 [Compound 27, 3-(2-Morpholin-4-yl-9-(3-methylphenyl)-9H-purin-6-yl)-phenol]
pIC50 [1]: > 6.00 | pIC50 [2]: > 6.00 | pIC50 [3]: ≥ 6.00

CC(c1ccccc1)n1cnc2c(-c3cccc(O)c3)nc(N3CCOCC3)nc21 (centres unmarked) [Compound 36]
pIC50 [1]: > 6.00 | pIC50 [2]: > 6.00 | pIC50 [4]: 5.30 to 6.00

C=CCCn1cnc2c(-c3cccc(O)c3)nc(N3CCOCC3)nc21 [Compound 22]
pIC50 [1]: > 6.00 | pIC50 [2]: > 6.00 | pIC50 [4]: ≥ 6.00

Oc1cccc(-c2nc(N3CCOCC3)nc3c2ncn3Cc2ccccc2)c1 [Compound 2]
pIC50 [1]: > 6.00 | pIC50 [2]: > 6.00 | pIC50 [4]: 5.30 to 6.00

Oc1cccc(-c2nc(N3CCOCC3)nc3c2ncn3CC2CC2)c1 [Compound 50]
pIC50 [1]: > 6.00 | pIC50 [2]: > 6.00 | pIC50 [4]: ≥ 6.00

CO[C@H]1C[C@@H]2CC[C@@H](C)[C@@](O)(O2)C(=O)C(=O)N2CCCC[C@H]2C(=O)O[C@H]([C@H](C)C[C@@H]2CC[C@@H](OC(=O)C(C)(CO)CO)[C@H](OC)C2)CC(=O)[C@H](C)/C=C(\C)[C@@H](O)[C@@H](OC)C(=O)[C@H](C)C[C@H](C)/C=C/C=C/C=C/1C [CCI-779]
IC50 [5]: low nanomolar range

COc1ccc(Cn2cnc3c(-c4cccc(O)c4)nc(N4CCOCC4)nc32)cc1 [Compound 8]
pIC50 [1]: > 6.00 | pIC50 [2]: > 6.00 | pIC50 [4]: 5.30 to 6.00

c1cc(-c2nc(N3CCOCC3)nc3c2ncn3C2CCCC2)c2cc[nH]c2c1 [Compound 63]
pIC50 [1]: > 6.00 | pIC50 [2]: > 6.00 | pIC50 [4]: 5.30 to 6.00
